Series [1] has as its target T1, hα7-wt nAChR-expressing GH4Cl cells (Homo sapiens, UniProt P36544).
T1 construct: expressed in transfected cells
As to the kind of experiment: Patch-clamp current recording (whole-cell), potentiation of choline 1 mM response, PAM type. Details: key to Pam type: Type 0 compounds minimally enhance the effect size of the current elicited by 1 mM choline.; Type 1 compounds enhance the effect size of the current elicited by 1 mM choline but minimally alter the kinetics of the receptor.; Type 2 compounds enhance the effect size of the current elicited by 1 mM choline while reducing the rate and/or the extent of desensitization.; Type 3 compounds enhance the effect size of the current elicited by 1 mM choline. When tested at higher concentrations up to 10 μM they completely inhibit desensitization, in particular a 1 mM choline application of 250 milliseconds.; Type 4 compounds allow for an initial desensitization of the receptor followed by a re-opening of the receptor during agonist application. As to conditions: for EC50: according to Ex. D.2, "<5" = no top plateau reached at maximal concentration, read-out: Potency (pEC50) (converted); for Pam type: patch-clamp current recording, 1 mM choline. The format is cell-based. Put shortly:
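Whole-cell voltage clamp at −70 mV of GH4Cl cells expressing human α7 nAChR, with PAM and 1 mM choline co-applied by rapid-switching (<100 ms) microfluidics. External solution HEPES-buffered, 1 mM Ca, pH 7.3; CsCl-based internal. Compounds classified into PAM types by effect on current amplitude and desensitization kinetics.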
(In general: Patch clamp records ionic current or voltage across a cell membrane.)

Series [2] deals with T2, hα7-wt nAChR-expressing cells (Homo sapiens, UniProt P36544).
T2 construct: expressed in transfected cells; host or cells: hα7-wt nAChR-expressing cells
T2 sequence (P36544 23-502): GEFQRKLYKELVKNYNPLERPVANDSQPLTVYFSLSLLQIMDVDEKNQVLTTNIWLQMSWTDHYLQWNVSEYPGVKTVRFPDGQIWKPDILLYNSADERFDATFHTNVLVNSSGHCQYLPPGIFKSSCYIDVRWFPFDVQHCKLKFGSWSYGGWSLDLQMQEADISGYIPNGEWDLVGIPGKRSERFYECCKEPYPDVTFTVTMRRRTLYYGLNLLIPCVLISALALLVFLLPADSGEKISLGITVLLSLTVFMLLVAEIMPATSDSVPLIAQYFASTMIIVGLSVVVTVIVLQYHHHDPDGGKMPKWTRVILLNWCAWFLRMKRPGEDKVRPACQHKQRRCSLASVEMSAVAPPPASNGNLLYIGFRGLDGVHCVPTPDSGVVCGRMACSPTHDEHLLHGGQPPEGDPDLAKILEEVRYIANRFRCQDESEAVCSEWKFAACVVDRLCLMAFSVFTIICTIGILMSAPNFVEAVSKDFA
As to the kind of experiment: Ca2+ flux imaging (FDSS) (Protocol B), PAM activity with choline 100 μM. In kind it is cell-based. As to conditions: according to Ex. D.1b; read-out: % Efficacy. As for the experimental part: Ca^2+ Flux Imaging (FDSS) (Protocol B)
• a) Assay buffer • Hanks buffered saline solution (HBSS, Invitrogen, Belgium), supplemented with 10 mM HEPES (Invitrogen, Belgium), CaCl2 to a final concentration of 5 mM, 0.1% Bovine serum albumin (Sigma-Aldrich NV, Belgium). • b) Calcium-sensitive dye—Fluo-4AM • Fluo-4AM (Molecular Probes, USA) was dissolved in DMSO containing 10% Pluronic acid (Molecular Probes, USA) to give a stock solution which was diluted in assay buffer supplemented with 5 mM probenicid (Sigma, Al-drich NV, Belgium) to give a final concentration of 2 μM. • c) 384-well plates • Black 384 well plate black/clear plates, PDL pre-coated (Corning, Incorporated, USA) • d) Calcium flux measurement • A Functional drug screening system (FDSS, Hamamatsu) was used to measure intracellular free-calcium flux signals. Method
Monolayers of hα7-wt nAChR-expressing cells were grown in multi-well plates, in particular black-sided, transparent bottomed 384 well plates coated with poly-D-lysine for 24 hours prior to loading with a fluorescent calcium indicator, in a particular embodiment loading with fluo-4AM for up to 120 minutes.
PAM activity was detected in real time by applying the compounds to be tested to the loaded cells along with a α7 nicotinic receptor agonist during constant monitoring of cellular fluorescence in a FDSS. Compounds giving peak fluorescent responses greater than the response due to agonist alone, were considered to be α7 nAChR PAM's. In a particular embodiment, the α7 nicotinic receptor agonist was choline, a more particular embodiment choline applied at a sub-maximal concentration of 100 μM. In a further setting of the present invention the compounds to be tested were applied prior to the α7 nicotinic receptor agonist, in a particular embodiment up to 10 minutes prior to the agonist.
A control response to choline was calculated on each plate from the difference in peak in fluorescence in wells receiving either choline or assay buffer alone. Compounds of the present invention were tested at a concentration range from 0.01 μM to 30 μM. Compounds were considered to have an interesting activity when they potentiated the choline signal at least with 500% when tested at a concentration of 30 μM (the efficacy of 100 μM choline was defined as 100% in the absence of a PAM). The compounds also have a potentiating effect on the response to choline when measured by whole-cell patch clamp electrophysiology in GH4Cl cells stably over-expressing the human wild-type α7 receptor.

T1 sequence (P36544 23-502): as above

One may read the melting point as the temperature of the solid-liquid transition. Turning to `Cc1cc(-n2nc(Nc3cc(F)c(F)c(F)c3)nc2CC(=O)NC2CCC2)cc(C)n1` [E242], the melting point came to 291.9 °C. Moreover, the EC50 in series [1] is 95.5 nM. Moreover, in series [2], the Emax stood at 676%.

Consider `Cc1cc(-n2nc(Nc3cccc(Cl)c3F)nc2CC(=O)NC2CCC2)c(C)cn1` [E159], for which, in series [1], the EC50 is 1740 nM and the Pam type is 1. Moreover, the Emax in series [2] was 592%.

As for `CNC(=O)CCc1nc(Nc2ccc(F)c(F)c2)nn1-c1ccc(OC(F)(F)F)cc1` [E47], the EC50 in series [1] is 1510 nM. Further, the Emax in series [2] was 698%.

Consider `CNC(=O)CCc1nc(Nc2ccc(F)c(F)c2)nn1-c1ccc(Cl)cc1` [E40], for which the melting point stood at 177.3 °C. Further, in series [1], the EC50 is 1910 nM. The Emax in series [2] was 495%.

With `Cc1cc(-n2nc(Nc3ccc(F)c(C(F)(F)F)c3)nc2CC(=O)NC2CC2)cc(C)n1` [E226], in series [1], the EC50 was 120 nM and the Pam type was determined as 1. The Emax in series [2] stood at 711%.

`Cc1cc(-n2nc(Nc3ccc(F)c(F)c3)nc2CCC(=O)N(C)C)cc(C)n1` [E234, 3-[(3,4-difluorophenyl)amino]-1-(2,6-dimethyl-4-pyridinyl)-N,N-dimethyl-1H-1,2,4-triazole-5-propanamide] registered a melting point of 200.2 °C. The EC50 in series [1] is 61.7 nM. Also, in series [2], the Emax was 459%.

Turning to `CNC(=O)Cc1nc(Nc2cc(OC)cc(C(F)(F)F)c2)nn1-c1cc(C)nc(C)c1` [E243], the melting point was 284.6 °C. In series [1], the EC50 was 204 nM. In series [2], the Emax was 802%.

For the molecule `CNC(=O)CCc1nc(Nc2ccc(F)c(F)c2)nn1-c1ccccc1Cl` [E38], the EC50 in series [1] is 3090 nM. The Emax in series [2] came out at 253%.

As to `CNC(=O)CCc1nc(Nc2ccc(F)c(F)c2)nn1-c1cccc(Cl)c1` [E39], the EC50 in series [1] was 2570 nM. Moreover, the Emax in series [2] was found to be 674%.

In the case of `Cc1nccc(-n2nc(Nc3cccc(Cl)c3F)nc2CC(=O)NCC2CC2)c1C` [E193], the EC50 in series [1] was about 3020 nM. For the same molecule, in series [2], the Emax was 327%.

On to `COc1ccc(-n2nc(Nc3cccc(OC(F)(F)F)c3)nc2CCC(=O)N(C)C)cc1` [E183], for which, in series [1], the EC50 was 26.9 nM and the Pam type came to 1. Further, the Emax in series [2] came out at 718%.

With `Cc1cc(-n2nc(Nc3cccc(Cl)c3F)nc2CC(=O)NCC2CC2)c(C)cn1` [E158], in series [1], the EC50 is 1380 nM and the Pam type stood at 1. Also, the Emax in series [2] is 328%.

In the case of `CC[C@H](O)Cc1nc(Nc2cc(OC)cc(C(F)(F)F)c2)nn1-c1ccnc(C)c1C` [E220], the EC50 in series [1] is 2040 nM. Moreover, the Emax in series [2] came to 646%.

In turn, `COc1ncccc1-n1nc(Nc2cccc(OC(F)(F)F)c2)nc1CCC(=O)N(C)C` [E4, 1-(2-Methoxy-3-pyridinyl)-N,N-dimethyl-3-[[3-(trifluoromethoxy)phenyl]amino]-1H-1,2,4-triazole-5-propanamide] returned a melting point of 166.7 °C. Further, in series [1], the EC50 is 3800 nM.

In the case of `Cc1cc(-n2nc(Nc3cccc(Cl)c3F)nc2CC(=O)NC2CCC2)cc(C)n1` [E152], the melting point came to 234 °C. Besides, in series [1], the EC50 was 245 nM and the Pam type is recorded as 2.

As for `Cc1ncccc1-n1nc(Nc2ccc3c(c2)OC(F)(F)O3)nc1CCC(=O)N(C)C` [E116], the melting point was 151.7 °C. In series [1], the EC50 is 2950 nM.

As for `Cc1cc(-n2nc(Nc3ccc(F)c(C(F)(F)F)c3)nc2CCCF)ccn1` [E8, 5-(3-Fluoropropyl)-N-[4-fluoro-3-(trifluoromethyl)phenyl]-1-(2-methyl-4-pyridinyl)-1H-1,2,4-triazol-3-amine], the melting point worked out at 191.5 °C. Besides, in series [1], the EC50 was 513 nM and the Pam type is on record as 0.

`Cc1cc(-n2nc(Nc3ccc(F)c(C(F)(F)F)c3)nc2CCCO)ccn1` [E7, 3-[[4-Fluoro-3-(trifluoromethyl)phenyl]amino]-1-(2-methyl-4-pyridinyl)-1H-1,2,4-triazole-5-propanol] showed a melting point of 197.6 °C. In series [1], the EC50 was 1000 nM and the Pam type is given as 2.

As for `CC[C@H](O)Cc1nc(Nc2ccc(F)c(F)c2)nn1-c1ccc(OC)cc1` [E29], the melting point is 117.6 °C. For the same molecule, in series [1], the EC50 is 1150 nM and the Pam type is on record as 1.

Regarding `Cc1cc(-n2nc(Nc3cccc(OC(F)(F)F)c3)nc2CC(=O)NC2CC2)cc(C)n1` [E182, N-cyclopropyl-1-(2,6-dimethyl-4-pyridinyl)-3-[[3-(trifluoromethoxy)phenyl]amino]-1H-1,2,4-triazole-5-acetamide], the melting point was 282.2 °C. In series [1], the EC50 is 331 nM and the Pam type is on record as 2.

In turn, `CC[C@H](O)Cc1nc(Nc2ccc(OC)cc2)nn1-c1ccnc(C)c1` [E202] returned a melting point of 133.2 °C. In series [1], the EC50 was 2750 nM and the Pam type was 2.

`C[C@H](O)Cc1nc(Nc2ccc(F)c(C(F)(F)F)c2)nn1-c1ccncc1Cl` [E25] returned a melting point of 150.3 °C. For the same molecule, in series [1], the EC50 is 4790 nM and the Pam type amounted to 2.

`CC[C@H](O)Cc1nc(Nc2ccc(F)c(F)c2)nn1-c1ccnc(C)c1` [E30] displayed a melting point of 171.1 °C. Further, in series [1], the EC50 was 676 nM and the Pam type stood at 2.

Turning to `Cc1cc(-n2nc(Nc3cc(F)c(F)c(F)c3)nc2C[C@H](C)O)ccn1` [E207], the melting point was found to be 200.2 °C. In series [1], the EC50 is 1320 nM and the Pam type came out at 2.

Molecule `Cc1cc(-n2nc(Nc3ccc(F)c(F)c3F)nc2CC(=O)NC2CCC2)cc(C)n1` [E212] gave a melting point of 249.4 °C. Also, in series [1], the EC50 was 251 nM and the Pam type was found to be 2.

`CCc1cc(-n2nc(Nc3ccc(F)c(F)c3)nc2C[C@@H](O)CC)ccn1` [E138] showed a melting point of 169.4 °C. For the same molecule, in series [1], the EC50 is 295 nM and the Pam type came to 2.

As for `CCNC(=O)Cc1nc(Nc2cccc(OC(F)(F)F)c2)nn1-c1cc(C)nc(C)c1` [E181], the melting point came out at 277.5 °C. Besides, in series [1], the EC50 is 513 nM and the Pam type is recorded as 2.

In turn, `CCNC(=O)C(C)c1nc(Nc2ccc3c(c2)OC(F)(F)O3)nn1-c1cc(C)nc(C)c1` (stereo not shown) [E275] had a melting point of 244 °C. Also, in series [1], the EC50 is 1050 nM and the Pam type was determined as 2.

Regarding `Cc1cc(-n2nc(Nc3cccc(Cl)c3F)nc2CCC(=O)N(C)C)cc(C)n1` [E265], in series [1], the EC50 was 37.2 nM. Moreover, the Emax in series [2] worked out at 616%.

As to `CC[C@@H](O)Cc1nc(Nc2cc(OC)cc(C(F)(F)F)c2)nn1-c1ccc(C)nc1` [E195], the melting point came out at 151.9 °C. Besides, in series [1], the EC50 was 3630 nM.

In turn, `CC[C@H](O)Cc1nc(Nc2ccc(F)c(F)c2)nn1-c1ccc(C)nc1` [E140] gave a melting point of 127.5 °C. In addition, in series [1], the EC50 is 1620 nM and the Pam type is recorded as 2.

Take `CC[C@H](O)Cc1nc(Nc2ccc(F)c(F)c2)nn1-c1cccnc1` [E145]: the melting point turned out to be 144.2 °C. For the same molecule, in series [1], the EC50 was 2450 nM.

As to `COc1cccc(-n2nc(Nc3cccc(OC(F)(F)F)c3)nc2CCC(=O)N(C)C)c1` [E60], the melting point worked out at 133.5 °C. Also, in series [1], the EC50 is 282 nM and the Pam type is 0.

Molecule `CNC(=O)CCc1nc(Nc2ccc(F)c(C(F)(F)F)c2)nn1-c1cccc(OC)c1` [E42] registered a melting point of 170.9 °C. In addition, the EC50 in series [1] was 2750 nM.

The values are drawn from US8778974B2, “Trisubstituted 1,2,4 triazoles” (Janssen Pharmaceutica NV, priority 2008, dated 2014).
